Consider 14 compounds from US7211572B2 (Japan Tobacco Inc., priority 2003, dated 2007).

The target of this experiment is T1, HIV integrase (Human immunodeficiency virus type 1 group M subtype B, UniProt P12497, F1332H).
T1 construct: HIV integrase full length gene; made in house; host or cells: Escherichia coli BL21(DE3), plasmid pET21a-INH
Briefly: Determination of enzyme (HIV integrase) inhibitory activity. It counts as biochemical. The note with it: recombinant HIV integrase (F185H), strand transfer ELISA, absorbance at 450 nm. In a few lines:
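Full-length integrase with F185H, expressed in E. coli and purified, was reacted for 60 min at 37 °C with compound and biotinylated donor DNA bound to streptavidin plates. Target DNA was added for 10 min, then anti-digoxigenin-peroxidase detection at A450; IC50 from % inhibition versus enzyme-free blank.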

Where a name gives a salt, the structure may show the parent alone. Some results are limits rather than exact numbers.

Turning to `CCCOc1cc(Cl)cc(CN2CCn3cc(-c4nccs4)c(=O)c(O)c3C2=O)c1` [Example 396, 2-(3-chloro-5-propoxybenzyl)-9-hydroxy-7-(thiazol-2-yl)-3,4-dihydro-2H-pyrido[1,2-a]pyrazine-1,8-dione hydrochloride], the half-maximal inhibitory concentration (IC50) lay in the range of 10 to 100 nM. Take `COCc1c(C(=O)C(C)(C)C)c(=O)c(O)c2n1CCN(Cc1ccc(F)cc1)C2=O` [Example 409, 7-(2,2-dimethylpropionyl)-2-(4-fluorobenzyl)-9-hydroxy-6-methoxymethyl-3,4-dihydro-2H-pyrido[1,2-a]pyrazine-1,8-dione hydrochloride]: the IC50 lay within 10 to 100 nM. In the case of `COCCNC(=O)c1cn2ccn(Cc3ccc(F)cc3)c(=O)c2c(O)c1=O` [Example 322, N-(2-methoxyethyl)-2-(4-fluorobenzyl)-9-hydroxy-1,8-dioxo-1,8-dihydro-2H-pyrido[1,2-a]pyrazine-7-carboxamide] it was 10 to 100 nM.

Turning to `O=c1ccn2ccn(CCCc3ccc(Cl)cc3)c(=O)c2c1O` [Example 70, 2-[3-(4-chlorophenyl)propyl]-9-hydroxy-2H-pyrido[1,2-a]pyrazine-1,8-dione], the IC50 is 10 to 100 nM. The result for `CCCOc1cc(Cl)ccc1CN1CCn2cc(-c3nccs3)c(=O)c(O)c2C1=O` [Example 357, 2-(4-chloro-2-propoxybenzyl)-9-hydroxy-7-(thiazol-2-yl)-3,4-dihydro-2H-pyrido[1,2-a]pyrazine-1,8-dione hydrochloride] reads 10 to 100 nM; that for `CC(C)Cc1cn(Cc2ccc(Cl)c(Cl)c2)c(=O)c2c(O)c(=O)ccn12` [Example 87, 2-(3,4-dichlorobenzyl)-9-hydroxy-4-isobutyl-2H-pyrido[1,2-a]pyrazine-1,8-dione], under 10 nM; that for `O=c1c(-c2cccc(O)c2)cn2ccn(Cc3cccc(Cl)c3)c(=O)c2c1O` [Example 136, 2-(3-chlorobenzyl)-9-hydroxy-7-(3-hydroxyphenyl)-2H-pyrido[1,2-a]pyrazine-1,8-dione], under 10 nM. In the case of `O=c1c(-c2ccccn2)cn2ccn(Cc3ccc(F)c(F)c3)c(=O)c2c1O` [Example 369, 2-(3,4-difluorobenzyl)-9-hydroxy-7-(pyridin-2-yl)-2H-pyrido[1,2-a]pyrazine-1,8-dione hydrochloride] it was under 10 nM. On to `COc1cccc(CN2CCc3cn(C)c(=O)c(O)c3C2=O)c1` [Example 144, 8-hydroxy-2-(3-methoxybenzyl)-6-methyl-2,3,4,6-tetrahydro-2,6-naphthyridine-1,7-dione], for which the IC50 lay in the range of 10 to 100 nM.

For `CC(C)C(=O)Nc1cn2ccn(Cc3ccc(F)cc3)c(=O)c2c(O)c1=O` [Example 321, N-[2-(4-fluorobenzyl)-9-hydroxy-1,8-dioxo-1,8-dihydro-2H-pyrido[1,2-a]pyrazin-7-yl]isobutyramide], the IC50 was in the range of 10 to 100 nM. For the compound `NC(=O)c1cc(=O)c(O)c2n1CCN(Cc1ccc(Cl)c(Cl)c1)C2=O` [Example 55, 2-(3,4-dichlorobenzyl)-9-hydroxy-1,8-dioxo-1,3,4,8-tetrahydro-2H-pyrido[1,2-a]pyrazine-6-carboxamide], the IC50 lay in the range of 10 to 100 nM.

`CCC(=O)c1cc(=O)c(O)c2n1CCN(Cc1ccc(Cl)c(Cl)c1)C2=O` [Example 59, 2-(3,4-dichlorobenzyl)-9-hydroxy-6-propionyl-3,4-dihydro-2H-pyrido[1,2-a]pyrazine-1,8-dione]: the IC50 was under 10 nM. Consider `CC(C)(C)C(=O)c1cn2ccn(Cc3cccc(Cl)c3)c(=O)c2c(O)c1=O` [Example 125, 2-(3-chlorobenzyl)-7-(2,2-dimethylpropionyl)-9-hydroxy-2H-pyrido[1,2-a]pyrazine-1,8-dione hydrochloride], for which the 50% inhibitory concentration (IC50) was under 10 nM.

As to `CCCNC(=O)c1cn2ccn(Cc3cccc(Cl)c3)c(=O)c2c(O)c1=O` [Example 171, N-propyl-2-(3-chlorobenzyl)-9-hydroxy-1,8-dioxo-1,8-dihydro-2H-pyrido[1,2-a]pyrazine-7-carboxamide], the IC50 is under 10 nM.
